Experimental data as given in US8008322B2, “Substituted pyrazolopyridines, compositions containing them, method for the production thereof, and their use” (Aventis Pharma S.A., priority 2005, dated 2011).

How the values were obtained:
human FAK = biological target: T1, human FAK (Homo sapiens, UniProt Q05397); experiment: FAK autophosphorylation inhibition, time-resolved fluorescence test (HTRF); format: biochemical; details: 15 μM ATP, 1 hour at 37° C., read-out: FAK IC 50
T1 construct: The whole cDNA of human FAK, the N-terminal end of which has been labelled with histidine; made in house; host or cells: baculovirus expression system (pFastBac HTc)
T1 sequence (Q05397 whole entry): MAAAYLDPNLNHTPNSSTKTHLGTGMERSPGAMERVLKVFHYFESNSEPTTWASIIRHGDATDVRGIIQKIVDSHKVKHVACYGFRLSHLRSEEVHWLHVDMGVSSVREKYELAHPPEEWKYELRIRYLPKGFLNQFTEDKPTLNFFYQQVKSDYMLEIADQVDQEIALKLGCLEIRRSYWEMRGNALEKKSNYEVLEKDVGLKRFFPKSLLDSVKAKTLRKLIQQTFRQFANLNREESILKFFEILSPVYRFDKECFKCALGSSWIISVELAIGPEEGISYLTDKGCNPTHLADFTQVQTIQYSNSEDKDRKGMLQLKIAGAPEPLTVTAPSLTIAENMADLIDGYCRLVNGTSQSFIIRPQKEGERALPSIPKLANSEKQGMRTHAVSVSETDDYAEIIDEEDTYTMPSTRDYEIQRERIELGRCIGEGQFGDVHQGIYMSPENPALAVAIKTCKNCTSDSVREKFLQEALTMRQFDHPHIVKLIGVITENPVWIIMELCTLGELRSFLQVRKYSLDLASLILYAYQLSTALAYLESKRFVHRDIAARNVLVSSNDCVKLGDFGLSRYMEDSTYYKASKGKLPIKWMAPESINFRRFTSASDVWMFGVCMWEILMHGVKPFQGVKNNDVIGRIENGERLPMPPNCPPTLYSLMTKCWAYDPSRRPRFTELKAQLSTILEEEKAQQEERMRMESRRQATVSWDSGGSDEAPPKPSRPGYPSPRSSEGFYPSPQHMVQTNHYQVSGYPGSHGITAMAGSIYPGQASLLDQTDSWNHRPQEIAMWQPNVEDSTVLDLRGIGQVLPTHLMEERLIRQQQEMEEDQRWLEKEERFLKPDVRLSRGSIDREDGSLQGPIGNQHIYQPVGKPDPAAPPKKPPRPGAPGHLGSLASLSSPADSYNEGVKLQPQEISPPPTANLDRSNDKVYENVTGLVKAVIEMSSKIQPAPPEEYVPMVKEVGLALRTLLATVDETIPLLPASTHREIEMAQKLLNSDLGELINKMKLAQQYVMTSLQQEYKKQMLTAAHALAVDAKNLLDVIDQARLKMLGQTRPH
Experimental: The inhibitory activity of the compounds on FAK is determined by measuring the inhibition of autophosphorylation of the enzyme using a time-resolved fluorescence test (HTRF).
The whole cDNA of human FAK, the N-terminal end of which has been labelled with histidine, was cloned in a pFastBac HTc baculovirus expression vector. The protein was expressed and purified to about 70% homogeneity.
The kinase activity is determined by incubating the enzyme (6.6 μg/mL) with different concentrations of test compound in a 50 mM Hepes pH=7.2, 10 mM MgCl2, 100 μm Na3VO4, 15 μM ATP buffer for 1 hour at 37° C. The enzymatic reaction is stopped by adding Hepes pH=7.0 buffer containing 0.4 mM KF, 133 mM EDTA, 0.1% BSA and the labelling is performed, for 1 to 2 hours at room temperature, by adding to this buffer an anti-Histidine antibody labelled with XL665 and a tyrosine phosphospecific monoclonal antibody conjugated to europium cryptate (Eu—K). The characteristics of the two fluorophores are available in G. Mathis et al., Anticancer Research, 1997, 17, pages 3011-3014. The energy transfer from the excited europium cryptate to the acceptor XL665 is proportional to the degree of autophosphorylation of FAK. The long-lasting signal specific for XL-665 is measured in a Packard Discovery plate counter. All the tests are performed in duplicate and the average of the two tests is calculated. The inhibition of the autophosphorylation activity of FAK with compounds of the invention is expressed as a percentage of inhibition relative to a control whose activity is measured in the absence of test compound. To calculate the percentage inhibition, the ratio [signal at 665 nm/signal at 620 nm] is considered.

human KDR enzyme = biological target: T2, human KDR enzyme (Homo sapiens, UniProt P35968); experiment: KDR substrate phosphorylation inhibition, scintillation technique; format: biochemical; details: GST-KDR cytoplasmic domain, substrate SH2-SH3 fragment of PLCγ, 33P-ATP, one hour at 37° C.; read-out: KDR IC 50
T2 construct: The cytoplasmic domain of the human KDR enzyme was cloned in the form of a GST fusion protein; GST; made in house; host or cells: SF21 insect cells (baculovirus, pFastBac)
T2 sequence (P35968 786-1356 limits assumed): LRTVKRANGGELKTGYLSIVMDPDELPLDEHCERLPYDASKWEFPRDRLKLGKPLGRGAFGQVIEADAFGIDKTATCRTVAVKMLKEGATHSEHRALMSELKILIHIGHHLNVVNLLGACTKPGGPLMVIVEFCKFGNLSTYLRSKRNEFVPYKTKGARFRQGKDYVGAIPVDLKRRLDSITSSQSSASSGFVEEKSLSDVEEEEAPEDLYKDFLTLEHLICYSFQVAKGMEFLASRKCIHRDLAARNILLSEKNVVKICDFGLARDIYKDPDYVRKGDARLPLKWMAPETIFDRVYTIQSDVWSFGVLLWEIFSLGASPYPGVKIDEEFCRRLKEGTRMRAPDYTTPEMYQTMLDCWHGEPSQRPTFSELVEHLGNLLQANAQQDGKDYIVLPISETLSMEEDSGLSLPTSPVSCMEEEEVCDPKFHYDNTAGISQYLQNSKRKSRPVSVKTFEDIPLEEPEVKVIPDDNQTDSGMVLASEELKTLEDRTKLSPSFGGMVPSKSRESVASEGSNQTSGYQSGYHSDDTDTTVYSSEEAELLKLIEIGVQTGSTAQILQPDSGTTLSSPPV
Experimental: The inhibitory effect of the compounds is determined in an in vitro test of phosphorylation of substrate with the enzyme KDR via a scintillation technique (96-well plate, NEN).
The cytoplasmic domain of the human KDR enzyme was cloned in the form of a GST fusion protein in the pFastBac baculovirus expression vector.
The KDR kinase activity is measured in a 20 mM MOPS, 10 mM MgCl2, 10 mM MnCl2, 1 mM DTT, 2.5 mM EGTA, 10 mM b-glycerophosphate, pH=7.2 buffer, in the presence of 10 mM MgCl2, 100 μm Na3VO4, 1 mM NaF. 10 μl of the compound are added to 70 μL of kinase buffer containing 100 ng of KDR enzyme at 4° C. The reaction is initiated by adding 20 μL of solution containing 2 μg of substrate (SH2-SH3 fragment of PLCγ expressed in the form of a GST fusion protein), 2 μCi of γ^33P[ATP] and 2 μm of cold ATP. After incubation for one hour at 37° C., the reaction is stopped by adding 1 volume (100 μl) of 200 mM EDTA. The incubation buffer is removed, and the wells are washed three times with 300 μL of PBS. The radioactivity in each well is measured using a Top Count NXT radioactivity counter (Packard).
The background is determined by measuring the radioactivity in four different wells containing radioactive ATP and the substrate alone.
A total activity control is measured in four different wells containing all the reagents (γ^33P-[ATP], KDR and substrate PLCγ), but in the absence of compound.
The inhibition of the KDR activity with the compound of the invention is expressed as a percentage of inhibition of the control activity determined in the absence of compound.

human Tie2 = biological target: T3, human Tie2 (Homo sapiens, UniProt Q02763); experiment: Tie2 phosphorylation of PLC inhibition, FlashPlate radioactivity; format: biochemical; details: GST-Tie2 intracellular domain 776-1124, substrate GST-PLC, 33P-ATP, one hour at 37° C.; read-out: TIE2 IC 50
T3 construct: the amino acids of the intracellular domain 776-1124; made in house; host or cells: baculovirus expression system (pFastBacGT)
T3 sequence (Q02763 776-1124): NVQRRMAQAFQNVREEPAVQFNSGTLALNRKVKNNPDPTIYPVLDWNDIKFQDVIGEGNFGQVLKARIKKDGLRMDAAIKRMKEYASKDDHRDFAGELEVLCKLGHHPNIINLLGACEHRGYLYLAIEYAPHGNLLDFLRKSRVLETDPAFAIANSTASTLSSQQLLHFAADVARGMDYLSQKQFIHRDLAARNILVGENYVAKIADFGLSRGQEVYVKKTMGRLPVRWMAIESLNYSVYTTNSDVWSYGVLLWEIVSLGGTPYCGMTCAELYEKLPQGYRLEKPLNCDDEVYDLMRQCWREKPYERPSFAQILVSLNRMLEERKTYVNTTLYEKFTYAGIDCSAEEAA
Experimental: This sequence was introduced into a pFastBacGT baculovirus expression vector in the form of a GST fusion protein. The inhibitory effect of the molecules is determined in a test of phosphorylation of PLC with Tie2 in the presence of GST-Tie2 purified to about 80% homogeneity. The substrate is composed of the SH2-SH3 fragments of PLC expressed in the form of a GST fusion protein.
The kinase activity of Tie2 is measured in a MOPS 20 mM pH 7.2 buffer, containing 10 mM MgCl2, 10 mM MnCl2, 1 mM DTT, 10 mM of glycerophosphate. In a 96-well FlashPlate plate maintained on ice, a reaction mixture is deposited, composed of 70 μL of kinase buffer containing 100 ng of enzyme GST-Tie2 per well. Next, 10 μL of the test molecule diluted in DMSO to a maximum concentration of 10% are added. For a given concentration, each measurement is performed four times. […] After incubation for one hour at 37° C., the reaction is stopped by adding 1 volume (100 μl) of EDTA 200 mM. After removal of the incubation buffer, the wells are washed three times with 300 μL of PBS. The radioactivity is measured on a MicroBeta1450 Wallac.
The inhibition of the Tie2 activity is calculated and expressed as a percentage of inhibition relative to the control activity determined in the absence of compound.

Row | IC50 (human FAK) | IC50 (human KDR enzyme) | IC50 (human Tie2) | melting point | SMILES
1 | 150 nM | 940 nM | 23 nM |  | Nc1n[nH]c2nccc(-c3ccc(NC(=O)Nc4cc(C(F)(F)F)ccc4F)nc3)c12 [Example 2, 1-[5-(3-Amino-1H-pyrazolo[3,4-b]pyrid-4-yl)pyrid-2-yl]-3-(2-fluoro-5-trifluoromethylphenyl)urea]
2 |  |  |  | 182 °C | CC(=O)Nc1ccc(C(F)(F)F)cc1NC(=O)Nc1ccc(-c2nccc3[nH]nc(N)c23)cc1 [Example 11, N-(2-{3-[4-(3-Amino-1H-pyrazolo[4,3-c]pyrid-4-yl)phenyl]ureido}-4-trifluoromethylphenyl)acetamide]
3 |  |  | 9 nM | 196 °C | Nc1n[nH]c2cncc(-c3ccc(NC(=O)Nc4cc(C(F)(F)F)ccc4F)cc3)c12 [Example 7, 1-[4-(3-Amino-1H-pyrazolo[3,4-c]pyrid-4-yl)phenyl]-3-(2-fluoro-5-trifluoromethylphenyl)urea]
4 | 80 nM | 218 nM | 4 nM |  | Nc1n[nH]c2ccnc(-c3ccc(NC(=O)Nc4cc(C(F)(F)F)ccc4F)nc3)c12 [Example 4, 1-[5-(3-Amino-1H-pyrazolo[4,3-c]pyrid-4-yl)pyrid-2-yl]-3-(2-fluoro-5-trifluoromethylphenyl)urea]
5 |  |  |  | 188 °C | Nc1n[nH]c2ccnc(-c3ccc(NC(=O)Nc4ccccc4)cc3)c12 [Example 8, 1-[4-(3-Amino-1H-pyrazolo[4,3-c]pyrid-4-yl]phenyl]-3-phenylurea]
6 |  |  |  | 195 °C | Cc1ccc(F)c(NC(=O)Nc2ccc(-c3nccc4[nH]nc(N)c34)cc2)c1 [Example 27, 1-[4-(3-Amino-1H-pyrazolo[4,3-c]pyrid-4-yl)phenyl]-3-(2-fluoro-5-methylphenyl-)urea]
7 |  |  |  | 187 °C | Nc1n[nH]c2ccnc(-c3ccc(NC(=O)Nc4cc(F)ccc4F)cc3)c12 [Example 32, 1-[4-(3-Amino-1H-pyrazolo[4,3-c]pyrid-4-yl)phenyl]-3-(2,5-difluorophenyl)urea]
8 |  |  |  | 210 °C | COc1ccc(C(F)(F)F)cc1NC(=O)Nc1ccc(-c2cncc3[nH]nc(N)c23)cc1 [Example 38, 1-[4-(3-Amino-1H-pyrazolo[3,4-c]pyrid-4-yl)phenyl]-3-(2-methoxy-5-trifluoromethylphenyl]urea]
9 |  |  |  | > 265 °C | Cc1ccc(F)cc1NC(=O)Nc1ccc(-c2nccc3[nH]nc(N)c23)cc1 [Example 34, 1-[4-(3-Amino-1H-pyrazolo[4,3-c]pyrid-4-yl)phenyl]-3-(5-fluoro-2-methylphenyl)urea]
10 | 190 nM | 1860 nM | 27 nM | > 260 °C | COc1ccc(C(F)(F)F)cc1NC(=O)Nc1ccc(-c2ccnc3[nH]nc(N)c23)cn1 [Example 6, 1-[5-(3-Amino-1H-pyrazolo[3,4-b]pyrid-4-yl)pyrid-2-yl]-3-(2-methoxy-5-trifluoromethylphenyl)urea]
11 | 73 nM | 33 nM | 5 nM |  | Nc1n[nH]c2ccnc(-c3ccc(NC(=O)Nc4cc(C(F)(F)F)ccc4F)cc3)c12 [Example 3, 1-[4-(3-Amino-1H-pyrazolo[4,3-c]pyrid-4-yl)phenyl]-3-(2-fluoro-5-trifluoromethylphenyl)urea]
12 | 286 nM | 49 nM | 15 nM | > 260 °C | COc1ccc(C(F)(F)F)cc1NC(=O)Nc1ccc(-c2ccnc3[nH]nc(N)c23)cc1 [Example 5, 1-[4-(3-Amino-1H-pyrazolo[3,4-b]pyrid-4-yl)phenyl]-3-(2-methoxy-5-trifluoromethylphenyl)urea]
13 |  |  |  | 228 °C | COc1ccc(C(F)(F)F)cc1NC(=O)Nc1ccc(-c2nccc3[nH]nc(N)c23)cn1 [Example 9, 1-[5-(3-Amino-1H-pyrazolo[4,3-c]pyrid-4-yl)pyrid-2-yl]-3-(2-methoxy-5-trifluoromethylphenyl)urea]
14 |  | 24 nM | 21 nM |  | CCOc1ccc(C(F)(F)F)cc1NC(=O)Nc1ccc(-c2ccnc3[nH]nc(N)c23)cc1 [Example 14, 1-[4-(3-Amino-1H-pyrazolo[3,4-b]pyrid-4-yl)phenyl]-3-(2-ethoxy-5-trifluoromethylphenyl)urea]
15 |  |  |  | 181 °C | COc1ccc(C(C)(C)C)cc1NC(=O)Nc1ccc(-c2nccc3[nH]nc(N)c23)cc1 [Example 29, 1-[4-(3-Amino-1H-pyrazolo[4,3-c]pyrid-4-yl)phenyl]-3-(5-tert-butyl-2-methoxyphenyl)urea]
16 |  | 60 nM | 10 nM | 200 °C | COc1ccc(C(F)(F)F)cc1NC(=O)Nc1ccc(-c2nccc3[nH]nc(N)c23)cc1 [Example 10, 1-[4-(3-Amino-1H-pyrazolo[4,3-c]pyrid-4-yl)phenyl]-3-(2-methoxy-5-trifluoromethylphenyl)urea]
17 | 264 nM |  |  |  | Nc1n[nH]c2nccc(-c3ccc(NC(=O)Nc4cc(C(F)(F)F)ccc4F)cc3)c12 [Example 1, 1-[4-(3-Amino-1H-pyrazolo[3,4-b]pyrid-4-yl)phenyl]-3-(2-fluoro-5-trifluoromethylphenyl)urea]
